Assays:
PaAlgX27–474 = target: T1, PaAlgX27–474 (Pseudomonas aeruginosa, UniProt Q51372); test: direct ESI-MS binding assay; settings: 50 mM ammonium acetate, pH 7, 298 K; corrected for nonspecific binding; site (active site or CBM) not resolved; read-out: Apparent K a (M^-1) AlgX
T1 construct: gene algX; residues 27-474 (mature protein, SGNH hydrolase-like domain plus C-terminal CBM)
Description: direct ESI-MS binding assay on PaAlgX27–474

PaAlgJ79–379 = target: T2, PaAlgJ79–379 (Pseudomonas aeruginosa, UniProt Q51393); test: direct ESI-MS binding assay; settings: 50 mM ammonium acetate, pH 7, 298 K; only folded (low charge state) fraction used, its concentration not accurately known; read-out: Apparent K a (M^-1) AlgJ
T2 construct: gene algJ; soluble periplasmic domain 79-379 without TM helix 12-29; N-terminal His6 thrombin-cleaved; expressed in E. coli BL21-CodonPlus; monomer by SEC
Description: direct ESI-MS binding assay on PaAlgJ79–379

[1] = tested on: CC(=O)Oc1ccc2cc(C(=O)O)c(=O)oc2c1; test: purified protein; settings: up to 10% DMSO, kcat given as (×10^3 s^-1), kcat/Km implies ×10^-3, 25.0 °C
[2] = tested on: CC(=O)Oc1ccc2cc(C(=O)O)c(=O)oc2c1; test: fluorescence acetylesterase assay; type: biochemical, Pseudomonas putida; settings: 50 mM sodium HEPES pH 7.0, 298 K, up to 10% DMSO, kcat given as (×10^3 s^-1), kcat/Km implies ×10^-3, 25.0 °C
Description: fluorescence acetylesterase assay on PpAlgJ75–370

[3] = 50 mM sodium HEPES pH 7.0, 298 K
[4] = 50 mM sodium HEPES pH 8.0, 298 K

T2 sequence (Q51393 79-379): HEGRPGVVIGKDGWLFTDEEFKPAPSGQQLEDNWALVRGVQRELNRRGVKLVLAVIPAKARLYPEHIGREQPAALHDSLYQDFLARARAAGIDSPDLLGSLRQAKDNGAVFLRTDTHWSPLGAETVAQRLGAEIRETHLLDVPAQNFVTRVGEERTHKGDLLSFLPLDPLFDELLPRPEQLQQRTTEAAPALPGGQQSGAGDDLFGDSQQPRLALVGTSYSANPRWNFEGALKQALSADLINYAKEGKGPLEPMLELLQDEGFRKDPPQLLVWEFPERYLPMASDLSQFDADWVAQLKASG
T1 sequence (Q51372 27-474): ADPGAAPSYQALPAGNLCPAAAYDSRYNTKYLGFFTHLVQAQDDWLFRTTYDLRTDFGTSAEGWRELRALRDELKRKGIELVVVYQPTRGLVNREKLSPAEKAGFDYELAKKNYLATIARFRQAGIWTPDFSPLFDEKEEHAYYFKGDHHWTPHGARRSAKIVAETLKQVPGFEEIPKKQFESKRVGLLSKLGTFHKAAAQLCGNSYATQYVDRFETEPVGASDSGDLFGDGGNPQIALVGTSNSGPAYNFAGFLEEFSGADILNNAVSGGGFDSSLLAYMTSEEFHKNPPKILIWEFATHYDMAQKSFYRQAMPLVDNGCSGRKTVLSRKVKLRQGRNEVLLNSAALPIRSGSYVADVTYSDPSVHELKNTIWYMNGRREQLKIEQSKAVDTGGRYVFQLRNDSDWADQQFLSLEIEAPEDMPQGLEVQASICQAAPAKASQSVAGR

| Compound | Kd (PaAlgX27–474) [µM] | Kd (PaAlgJ79–379) [µM] | further results |
| --- | --- | --- | --- |
| O=C(O)C1OC(OC2C(C(=O)O)OC(OC3C(C(=O)O)OC(OC4C(C(=O)O)OC(O)C(O)C4O)C(O)C3O)C(O)C2O)C(O)C(O)C1O (stereo not shown) [ManA4] | 1000 | > 2000 |  |
| O=C(O)C1OC(OC2C(C(=O)O)OC(OC3C(C(=O)O)OC(OC4C(C(=O)O)OC(OC5C(C(=O)O)OC(O)C(O)C5O)C(O)C4O)C(O)C3O)C(O)C2O)C(O)C(O)C1O (stereo not shown) [ManA5] | 1000 | > 2000 |  |
| CCCO[C@@H]1O[C@H](C(=O)O)[C@@H](O[C@@H]2O[C@H](C(=O)O)[C@@H](O[C@@H]3O[C@H](C(=O)O)[C@@H](O[C@@H]4O[C@H](C(=O)O)[C@@H](O[C@@H]5O[C@H](C(=O)O)[C@@H](O[C@@H]6O[C@H](C(=O)O)[C@@H](O)[C@H](O)[C@@H]6O)[C@H](O)[C@@H]5O)[C@H](O)[C@@H]4O)[C@H](O)[C@@H]3O)[C@H](O)[C@@H]2O)[C@H](O)[C@@H]1O [ManA6] | 312 | > 2000 |  |
| ManA7 | 208 | > 2000 |  |
| ManA8 | 172 |  |  |
| ManA9 | 114 |  |  |
| ManA10 | 100 |  |  |
| ManA11 | 62.5 |  |  |
| ManA12 | 52.6 |  |  |
| PaAlgJ79–379 (Pseudomonas aeruginosa PAO1) |  |  | Km [1, 3]: 1160 ± 120 µM; kcat [1, 3]: 3.44±0.129 ×10^-3 s^-1; kcat/Km [1, 3]: 2.96 ± 0.324 M⁻¹ s⁻¹ |
| PaAlgX27–474 (Pseudomonas aeruginosa PAO1) |  |  | Km [1, 4]: 1100 ± 96 µM; kcat [1, 4]: 11.4±0.343 ×10^-3 s^-1; kcat/Km [1, 4]: 10.3 ± 0.961 M⁻¹ s⁻¹ |
| PpAlgJ75–370 (Pseudomonas putida KT2440) |  |  | Km [2]: 2300 ± 96.3 µM; kcat [2]: 7.80±0.155 ×10^-3 s^-1; kcat/Km [2]: 3.39 ± 0.0688 M⁻¹ s⁻¹ |
